Source: patent publication US6737059B1, “Methods of inhibiting inflammatory processes and alleviating symptoms associated with multiple sclerosis” (Board of Regents of the University Washington, priority 1992, dated 2004)
“And” between values parts separate entries of the source, which are not always exact repeats. Equal values may be shown once.

Key:
[1] = system: white blood cell; assay: WBC counts in blood of EAE animals; format: in vivo, Macaca fascicularis; conditions: individual animals
Excerpt: The hematologic hallmarks of untreated EAE are a progressive leukocytosis and lymphopenia prior to the onset of clinical signs. The leukocytosis can represent as much as a four-fold increase in the number of circulating PMNC and no significant changes in the frequency or absolute numbers of monocytes, eosinophils, or basophils. Following successful treatments of EAE, the absolute numbers of lymphocytes and PMNC return, fairly soon after the initiation of treatment, to pre-sensitization levels. Thus, continuous monitoring of blood leukocytes provides a useful measure of disease progression which complements the clinical evaluation and magnetic resonance imaging.
Blood was drawn on a weekly basis until the onset of clinical disease and then more frequently. One-half ml was sent to the hematology laboratory for WBC and differential counts. The results are set out in Table 3 below providing white blood cell number (×10^3) per mm^3 whole blood.
Two Macaca fascicularis monkeys were then involved in a study to preliminarily determine the ability of mAb 23F2G to alleviate EAE symptoms. The EAE induction procedures were essentially as in Example 1. Two animals, Nos. 89161 and 89186, sensitized to 1.0 mg of purified monkey basic protein and developed hyperacute hemorrhagic EAE 18 and 20 days post sensitization, respectively. Animal 89161 died within 12 hours of onset and before treatment with dexamethasone could be initiated. Animal 89186 was treated for a week with both dexamethasone (3 days at 4 mg/kg, 2 days at 2 mg/kg and 2 days at 1 mg/kg) and mAb 23F2G (7 days at 2 mg/kg, i.v.). The animal improved dramatically with complete resolution of paralysis three days after initiation of treatment. Lesions detected by MRI resolved four days after cessation of treatment and the animal improved dramatically with complete resolution of paralysis. Eight days following cessation of treatment, the animal relapsed and was sacrificed. […] The white blood cell count rose from 22.7×10^3 on the day of clinical onset to 82×10^3 /mm^3 on the last day of treatment.

[2] = system: Experimental Allergic Encephalomyelitis (EAE); assay: EAE in macaques: clinical evaluation and survival; format: in vivo, Macaca fascicularis
Description: Eighteen male monkeys Macaca fascicularis weighing 2-3 kg were sensitized to myelin basic protein (BP) by the intra dermal injection of 0.1 ml of an emulsion containing 5.0 mg of monkey BP and 0.5 mg of heat-killed M. tuberculosis. Each animal was obtained and housed by the Regional Primate Research Center at the University of Washington, Seattle. The Primate Center conforms to the National Institutes of Health Guide for the Care and Use of laboratory Animals. Ten days after sensitization to BP, each animal was outfitted with a femoral catheter and tether to facilitate blood sampling and the administration of treatments or anesthetics for magnetic resonance imaging (MRI). The animals were maintained on intravenous heparin (18 units/hour) to prevent blood clots from forming in the intra venous lines.
The animals were randomly admitted to specific treatment groups before they were sensitized to BP. This was done to schedule MRI and to prevent the severity of clinical signs at the onset from influencing the choice of therapy. Primate Center personnel, responsible for deciding when animals should be treated or sacrificed, were blinded regarding the treatment history of each animal. Table 1 below provides a statement of criteria for determination of clinical signs and grades of EAE in the animals.
At the onset of definite clinical signs (± to +) six EAE animals received a bolus injection of mAb 60.3 (2 mg/kg) and dexamethasone (4 mg/kg). […]. Sever acute EAE occurs in approximately 25 % of animals induced to develop EAE and is caused by edema in areas involving or impinging upon the brain stem or cerebral cortex. Following injection of the bolus, these six animals were treated by continuous infusion of mAb 60.3 (2 mg/kg/day) for seven days. […]. Six control EAE animals were treated only with dexamethasone, following the same protocol outlined above, and six additional controls were treated with continuous infusion of saline.
Animals that improved and/or stabilized as a result of therapy were sacrificed six weeks after the onset of clinical signs. Animals that experienced a clinical relapse (clinical signs ≧++) some time after the cessation of treatment and before six weeks had elapsed, were sacrificed shortly after the onset of the relapse. […] The statistical significance of differences in survival times in each treatment group was determined by two-tailed Student t analysis.
Disease progression was monitored by a combination of clinical evaluation, blood analysis and magnetic resonance imaging. Clinical evaluations were performed twice daily. […]

Q: With `C[C@@H]1C[C@H]2[C@@H]3CCC4=CC(=O)C=C[C@]4(C)[C@@]3(F)[C@@H](O)C[C@]2(C)[C@@]1(O)C(=O)CO` [dexamethasone] as the compound, how does the “white blood cell number” value ([1]; Day 2) read?
A: The value was 3.1 ×10^3 per mm^3 whole blood and 5.4 ×10^3 per mm^3 whole blood.

Q: And the “white blood cell number” value ([1]; Day 4)?
A: Its value is 3.7 ×10^3 per mm^3 whole blood and 3.6 ×10^3 per mm^3 whole blood.

Q: What about the “white blood cell number” value ([1]; Day 7 (end of treatment)) of the same compound?
A: The value was 3.8 ×10^3 per mm^3 whole blood and 7.0 ×10^3 per mm^3 whole blood.

Q: And the “white blood cell number” value ([1]; Day 10)?
A: Its value is 8.7 ×10^3 per mm^3 whole blood and 10.7 ×10^3 per mm^3 whole blood.

Q: What about the “white blood cell number” value ([1]; Day 14) of the same compound?
A: The value was 7.9 ×10^3 per mm^3 whole blood.

Q: What about the “white blood cell number” value ([1]; Onset of clinical signs (start of treatment)) of the same compound?
A: Its value is 9.6 ×10^3 per mm^3 whole blood and 9.0 ×10^3 per mm^3 whole blood and 14.6 ×10^3 per mm^3 whole blood and 32.2 ×10^3 per mm^3 whole blood and 12.4 ×10^3 per mm^3 whole blood and 16.3 ×10^3 per mm^3 whole blood.

Q: And the “white blood cell number” value ([1]; Presens (baseline before sensitization))?
A: Its value is 4.7 ×10^3 per mm^3 whole blood and 6.1 ×10^3 per mm^3 whole blood and 6.7 ×10^3 per mm^3 whole blood and 13.5 ×10^3 per mm^3 whole blood and 8.9 ×10^3 per mm^3 whole blood and 14.1 ×10^3 per mm^3 whole blood.

Q: And the mean survival time ([2]; after onset, group of six EAE macaques)?
A: Its mean survival time is 7 days.

Q: And the “survival after onset (range of group)” value ([2]; group of six EAE macaques)?
A: The value was 1 to 17 days.

Q: And the “Grade (severity of clinical signs at time of sacrifice)” value ([2]; individual EAE macaques, 7-day treatment from onset of clinical signs, listed as dex alone)?
A: Its value is “++”.

Q: What about the “Survival (days of survival post-onset)” value ([2]; individual EAE macaques, 7-day treatment from onset of clinical signs, stable animals sacrificed at six weeks (42 days), listed as dex alone) of the same compound?
A: The value was 17 days and 1 days (2×) and 2 days and 13 days and 9 days.
